# Measurements: ChEMBL document CHEMBL1250451, “Mechanistic insights into a Ca2+-dependent family of alpha-mannosidases in a human gut symbiont” (Nat Chem Biol, 2010)
# Columns and labels:
# Type in all cases: protein assay
# [1] = target: T1, Alpha-1,2-mannosidase (BT_3990) (Bacteroides thetaiotaomicron) (UniProt Q8A0N1); assay: Activity of Bacteroides thetaiotaomicron GH92 alpha-mannosidase 3990 assessed as recovery of enzyme activity at 1 mM in presence of 7 mM Be(2+) ions and in presence of 5 mM EGTA in 100 mM pH 7 MOPS buffer relative to enzyme activity in presence of calcium
# T1 sequence (whole entry): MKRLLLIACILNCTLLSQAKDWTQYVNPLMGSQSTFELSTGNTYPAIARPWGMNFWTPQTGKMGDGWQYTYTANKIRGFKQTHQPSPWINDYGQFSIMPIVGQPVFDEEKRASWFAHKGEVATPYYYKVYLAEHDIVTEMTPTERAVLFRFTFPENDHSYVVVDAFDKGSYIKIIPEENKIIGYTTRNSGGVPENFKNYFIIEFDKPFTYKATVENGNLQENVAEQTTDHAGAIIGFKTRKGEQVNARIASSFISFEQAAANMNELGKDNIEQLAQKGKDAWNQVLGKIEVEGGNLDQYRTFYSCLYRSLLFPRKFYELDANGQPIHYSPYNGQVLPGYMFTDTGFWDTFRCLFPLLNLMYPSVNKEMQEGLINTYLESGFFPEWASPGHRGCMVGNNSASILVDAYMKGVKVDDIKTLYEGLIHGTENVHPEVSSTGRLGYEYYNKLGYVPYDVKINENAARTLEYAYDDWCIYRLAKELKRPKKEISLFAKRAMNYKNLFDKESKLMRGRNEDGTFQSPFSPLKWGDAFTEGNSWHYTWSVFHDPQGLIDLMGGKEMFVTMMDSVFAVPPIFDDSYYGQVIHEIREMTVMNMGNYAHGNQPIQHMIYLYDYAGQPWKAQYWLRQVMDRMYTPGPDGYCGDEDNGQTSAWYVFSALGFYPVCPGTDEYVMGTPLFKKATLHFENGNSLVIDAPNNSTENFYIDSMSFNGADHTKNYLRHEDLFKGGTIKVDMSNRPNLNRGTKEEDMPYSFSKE
# [2] = target: T2, Alpha-1,2-mannosidase (BT_2199) (Bacteroides thetaiotaomicron) (UniProt Q8A5N9); assay: Activity of Bacteroides thetaiotaomicron GH92 alpha-mannosidase 2199 assessed as recovery of enzyme activity at 1 mM in presence of 7 mM Ti(3+) ions and in presence of 5 mM EDTA in 100 mM pH 7 MOPS buffer relative to enzyme activity in presence of calcium
# T2 sequence (whole entry): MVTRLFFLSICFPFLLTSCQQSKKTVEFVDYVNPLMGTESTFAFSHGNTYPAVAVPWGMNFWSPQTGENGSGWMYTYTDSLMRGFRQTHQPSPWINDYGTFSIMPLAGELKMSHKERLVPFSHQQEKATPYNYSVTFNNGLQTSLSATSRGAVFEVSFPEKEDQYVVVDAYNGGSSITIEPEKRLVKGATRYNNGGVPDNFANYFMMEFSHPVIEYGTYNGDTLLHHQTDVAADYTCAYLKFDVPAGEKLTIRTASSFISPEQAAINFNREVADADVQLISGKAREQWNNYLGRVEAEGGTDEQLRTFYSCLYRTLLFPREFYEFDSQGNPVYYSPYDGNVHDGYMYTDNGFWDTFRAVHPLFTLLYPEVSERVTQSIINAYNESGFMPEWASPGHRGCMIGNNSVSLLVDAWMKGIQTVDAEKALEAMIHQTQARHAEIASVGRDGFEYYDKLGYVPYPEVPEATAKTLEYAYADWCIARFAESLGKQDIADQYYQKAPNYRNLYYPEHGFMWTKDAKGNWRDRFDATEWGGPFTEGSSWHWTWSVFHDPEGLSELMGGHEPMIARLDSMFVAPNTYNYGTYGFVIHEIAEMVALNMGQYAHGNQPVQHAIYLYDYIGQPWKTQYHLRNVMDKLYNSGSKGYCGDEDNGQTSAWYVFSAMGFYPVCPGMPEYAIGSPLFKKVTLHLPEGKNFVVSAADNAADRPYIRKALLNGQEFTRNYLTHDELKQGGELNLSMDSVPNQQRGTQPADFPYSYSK
# [3] = target: T2, Alpha-1,2-mannosidase (BT_2199) (Bacteroides thetaiotaomicron); assay: Activity of Bacteroides thetaiotaomicron GH92 alpha-mannosidase 2199 assessed as recovery of enzyme activity at 1 mM in presence of 7 mM Mn(2+) ions and in presence of 5 mM EGTA in 100 mM pH 7 MOPS buffer relative to enzyme activity in presence of calcium
# [4] = target: T1, Alpha-1,2-mannosidase (BT_3990) (Bacteroides thetaiotaomicron); assay: Activity of Bacteroides thetaiotaomicron GH92 alpha-mannosidase 3990 assessed as recovery of enzyme activity at 1 mM in presence of 7 mM Ti(3+) ions and in presence of 5 mM EDTA in 100 mM pH 7 MOPS buffer relative to enzyme activity in presence of calcium
# [5] = target: T1, Alpha-1,2-mannosidase (BT_3990) (Bacteroides thetaiotaomicron); assay: Activity of Bacteroides thetaiotaomicron GH92 alpha-mannosidase 3990 assessed as recovery of enzyme activity at 1 mM in presence of 7 mM V(3+) ions and in presence of 5 mM EDTA in 100 mM pH 7 MOPS buffer relative to enzyme activity in presence of calcium
# [6] = target: T2, Alpha-1,2-mannosidase (BT_2199) (Bacteroides thetaiotaomicron); assay: Activity of Bacteroides thetaiotaomicron GH92 alpha-mannosidase 2199 assessed as recovery of enzyme activity at 1 mM in presence of 7 mM V(3+) ions and in presence of 5 mM EDTA in 100 mM pH 7 MOPS buffer relative to enzyme activity in presence of calcium
# [7] = target: T2, Alpha-1,2-mannosidase (BT_2199) (Bacteroides thetaiotaomicron); assay: Activity of Bacteroides thetaiotaomicron GH92 alpha-mannosidase 2199 assessed as recovery of enzyme activity at 1 mM in presence of 7 mM Ba(2+) ions and in presence of 5 mM EGTA in 100 mM pH 7 MOPS buffer relative to enzyme activity in presence of calcium
# [8] = target: T2, Alpha-1,2-mannosidase (BT_2199) (Bacteroides thetaiotaomicron); assay: Activity of Bacteroides thetaiotaomicron GH92 alpha-mannosidase 2199 assessed as recovery of enzyme activity at 1 mM in presence of 7 mM Be(2+) ions and in presence of 5 mM EGTA in 100 mM pH 7 MOPS buffer relative to enzyme activity in presence of calcium
# [9] = target: T1, Alpha-1,2-mannosidase (BT_3990) (Bacteroides thetaiotaomicron); assay: Activity of Bacteroides thetaiotaomicron GH92 alpha-mannosidase 3990 assessed as recovery of enzyme activity at 1 mM in presence of 7 mM Co(2+) ions and in presence of 5 mM EGTA in 100 mM pH 7 MOPS buffer relative to enzyme activity in presence of calcium
# [10] = target: T2, Alpha-1,2-mannosidase (BT_2199) (Bacteroides thetaiotaomicron); assay: Activity of Bacteroides thetaiotaomicron GH92 alpha-mannosidase 2199 assessed as recovery of enzyme activity at 1 mM in presence of 7 mM Ca(2+) ions and in presence of 5 mM EDTA in 100 mM pH 7 MOPS buffer relative to enzyme activity in presence of calcium
# [11] = target: T1, Alpha-1,2-mannosidase (BT_3990) (Bacteroides thetaiotaomicron); assay: Activity of Bacteroides thetaiotaomicron GH92 alpha-mannosidase 3990 assessed as recovery of enzyme activity at 1 mM in presence of 7 mM Ba(2+) ions and in presence of 5 mM EGTA in 100 mM pH 7 MOPS buffer relative to enzyme activity in presence of calcium
structure (smiles),measurement,setting,value
O=[N+]([O-])c1ccc(O[C@H]2O[C@H](CO)[C@@H](O)[C@H](O)[C@@H]2O)cc1,Activity,[1],0%
same,Activity,[2],0%
same,Activity,[3],6%
same,Activity,[4],0%
same,Activity,[5],0%
same,Activity,[6],0%
same,Activity,[7],0%
same,Activity,[8],0%
same,Activity,[9],11%
same,Activity,[10],100%
same,Activity,[11],0%
